From PubChem BioAssay (NCI)
Several values for one entry are separate records, joined by “and”; a condition that tells them apart may be missing. Identical values can stand only once.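 Following 48 hours of exposure in 96-well plates, responses at five concentrations were used to interpolate endpoints linearly. At the GI50, growth is halved. The concentration for full growth arrest is given as TGI.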

How the values were obtained:
Experiment in all cases: NCI tumour cell line growth inhibition, 48 h
[1] = system: NCI-H460 lung
[2] = system: HCT-15 colon
[3] = system: EKVX NSCLC
[4] = system: SK-MEL-5 melanoma
[5] = system: HT29 colon
[6] = system: A549 NSCLC
[7] = system: NCI-H226 lung
[8] = system: HOP-92 NSCLC
[9] = system: MDA-MB-435
[10] = system: BT-549 breast

Compound	TGI [1]	TGI [2]	TGI [3]	TGI [4]	TGI [5]	TGI [6]	TGI [7]	TGI [8]	GI50 [9]	TGI [9]	GI50 [1]	GI50 [2]	GI50 [4]	GI50 [5]	GI50 [6]	GI50 [10]	TGI [10]	GI50 [7]	GI50 [3]	GI50 [8]
OCC(O)COc1ccc(F)cc1 (stereo not given)	> 100 µM	> 100 µM	> 100 µM	> 100 µM	> 100 µM	> 100 µM	> 100 µM	> 100 µM												
Cc1ccc(C)c(N2C(=O)C(=O)C(c3nc4ccccc4s3)C(=O)C2=O)c1	> 100 µM	> 100 µM	> 100 µM	> 100 µM	> 100 µM	> 100 µM	> 100 µM	> 100 µM												
CC(=O)N[C@@H](Cc1ccc(OP(=O)(O)O)cc1)C(=O)N[C@H]1CCC(=O)N2CCC[C@@H](C(=O)NCc3cccc4ccccc34)N2C1=O	> 25 µM	> 25 µM		> 25 µM	> 25 µM	> 25 µM	> 25 µM		> 25 µM	> 25 µM	> 25 µM	> 25 µM	> 25 µM	> 25 µM	> 25 µM	> 25 µM	> 25 µM	> 25 µM		
COC(=O)Nc1nc2ccc(C(=O)C3CC3)cc2[nH]1	20.7 µM	> 100 µM	> 100 µM	6.23 µM	6.31 µM	> 100 µM	30.2 µM		0.134 µM	0.324 µM	0.363 µM	0.385 µM	0.385 µM	0.295 µM	0.452 µM	1.01 µM	> 30.7 µM	0.423 µM	0.554 µM	
OC1CCC(COC(c2ccccc2)(c2ccccc2)c2ccccc2)O1 (stereo not given)	44.5 µM	44.5 µM	> 10 µM	30.9 µM	33.7 µM	37 µM	45.4 µM			39.9 µM							40.6 µM			
COc1c(O)cc2c(c1CC=C(C)C)OC(=O)c1c(cc(O)c(CC=C(C)C)c1O)O2	7.29 µM	8.94 µM	8.74 µM	7.91 µM	8.7 µM	8.28 µM	8.86 µM	7.78 µM	4.11 µM	7.94 µM	3.69 µM	3.95 µM	4.24 µM	4.39 µM	4.26 µM			4.51 µM	4.67 µM	4.08 µM
C#CCOCCCC(=O)O	> 100 µM	> 100 µM	> 100 µM	> 100 µM	> 100 µM	> 100 µM	> 100 µM	> 100 µM									> 100 µM			
COc1ccc(/C=C/C(=O)c2ccc(B(O)O)cc2)cc1O	> 83.4 µM	> 39.3 µM		37.5 µM	> 60.4 µM	> 76.7 µM	97.1 µM	29.8 µM	2.11 µM	5.5 µM	19.8 µM	4.95 µM	14.6 µM	8.22 µM	14.5 µM	6.8 µM	20.1 µM	28.2 µM		3.46 µM
Cc1cc2c(cc1C)[n+](=O)c(C(=O)CC(=O)C(=O)Nc1ccccc1C)c(C)n2[O-]	> 100 µM	> 100 µM	> 100 µM	> 100 µM	> 100 µM	> 100 µM	> 100 µM	> 100 µM												
O=C1NC(=N[C@@H]2C[C@H]2c2ccccc2)S/C1=C\c1ccc2ncccc2c1	6.79 µM	> 25 µM		9.2 µM	9.04 µM	6.71 µM	10.2 µM	10.1 µM	0.688 µM	2.85 µM	1.32 µM	0.74 µM	3.93 µM	1.12 µM	0.976 µM	1.57 µM	6.49 µM	3.18 µM		3.68 µM
CC[C@@]1(O)C(=O)OCc2c1cc1n(c2=O)Cc2cc3c(OC)cccc3nc2-1	1.27 µM	> 60 µM	8.56 µM	0.311 µM	> 43.7 µM	7.59 µM	0.078 µM and 0.445 µM	0.685 µM			0.000801 µM and < 0.215 µM		0.0229 µM				> 39.8 µM	0.00806 µM		5.99e-05 µM
CN(CCNc1ccc(C(=N)N)cc1)c1ccc(C(=N)N)cc1	> 100 µM	> 100 µM	> 100 µM	28.3 µM	> 100 µM	> 100 µM	> 100 µM		66.3 µM	> 100 µM	4.74 µM	31.2 µM	13.2 µM	80.8 µM	0.249 µM	13.8 µM	38.4 µM	3.81 µM	20 µM	
COC1OC(CO)C(O)C(NC(=O)N(C)N=O)C1O (stereo not given)	> 100 µM	> 100 µM	> 100 µM	> 100 µM	> 100 µM	> 100 µM	> 100 µM	> 100 µM												
ClCCN(CCCl)c1ccc(OCc2ccccc2)cc1	19.8 µM	84.1 µM		20.6 µM	49.8 µM	29.8 µM	28 µM		8.16 µM	32.6 µM	0.603 µM	5.11 µM	6.62 µM	13.4 µM	2.53 µM	2.5 µM	22.6 µM	10.3 µM		
Cc1cn2c(/C=N/NC3=NCCN3)c(-c3ccc(Cl)c([N+](=O)[O-])c3)nc2s1	> 50 µM		10.8 µM	2.3 µM				2.82 µM			2.34 µM		0.989 µM			0.892 µM	1.77 µM		3.07 µM	0.776 µM
O=C1C2=C(c3ccccc31)C(c1ccccc1Cl)NC(=S)N2 (stereo not given)	> 100 µM	> 100 µM	> 100 µM	46 µM	> 100 µM	> 100 µM	> 100 µM	68.4 µM												
O=C1/C(=C\c2ccc(Cl)cc2)CN(C(=O)c2ccccc2)C/C1=C\c1ccc(Cl)cc1	> 84.7 µM	5.03 µM		6.78 µM	5 µM	> 45.6 µM	> 20.1 µM	55.9 µM	2.58 µM	8.04 µM	5.97 µM	1.86 µM	2.39 µM	1.66 µM	3.15 µM	2.89 µM	7.17 µM			7.18 µM
